What follows are compounds tested against human Kv1.3 (Homo sapiens (Human), UniProt P22001) (assay: Kv1.3 potency evaluation, automated patch clamp electrophysiology (QPatch HT) in CHO-Kv1.3 cells). Conditions: whole-cell QPatch HT, % inhibition of charge, step to +30 mV, four concentrations, N≥3 cells, read-out: hKv1.3 IC50.
Assay type: cell-based
Method in brief: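 Automated whole-cell patch clamp in CHO cells stably expressing human Kv1.3; steps from −80 to +30 mV (500 ms) at 0.067 Hz. Four cumulative concentrations after vehicle (0.1-0.3% DMSO); charge inhibition vs vehicle fitted by four-parameter logistic for IC50, N≥3 cells.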

Chain of human Kv1.3 (P22001 whole entry): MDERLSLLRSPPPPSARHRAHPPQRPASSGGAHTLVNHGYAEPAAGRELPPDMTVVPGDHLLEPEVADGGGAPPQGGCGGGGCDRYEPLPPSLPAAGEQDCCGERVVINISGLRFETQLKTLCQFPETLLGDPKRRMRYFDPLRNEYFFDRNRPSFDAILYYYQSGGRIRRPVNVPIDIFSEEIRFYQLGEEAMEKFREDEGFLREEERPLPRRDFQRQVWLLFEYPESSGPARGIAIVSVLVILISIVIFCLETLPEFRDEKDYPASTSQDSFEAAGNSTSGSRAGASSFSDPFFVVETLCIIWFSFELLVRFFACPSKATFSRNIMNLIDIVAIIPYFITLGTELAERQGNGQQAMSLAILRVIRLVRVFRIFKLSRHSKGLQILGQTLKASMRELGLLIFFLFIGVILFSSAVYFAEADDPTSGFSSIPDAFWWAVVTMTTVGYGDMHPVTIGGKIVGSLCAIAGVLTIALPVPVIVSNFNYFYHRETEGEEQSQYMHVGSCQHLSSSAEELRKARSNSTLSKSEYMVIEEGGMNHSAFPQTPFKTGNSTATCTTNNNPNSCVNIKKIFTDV

| IC50 [nM] | Compound |
| --- | --- |
| 136 | CC1(C)N=C(C23CC(N(Cc4ccc(Cl)c(Cl)c4)S(=O)(=O)CCC(F)F)(C2)C3)N[C@H]1C(=O)NCC1CC(F)(F)C1 (mixture of isomers) [Example 205] |
| 137 | CC1(C)N=C(C23CC(N(Cc4ccc(Cl)cc4)S(=O)(=O)CCCC(F)(F)F)(C2)C3)N[C@H]1C(=O)NCCC(F)(F)F (mixture of isomers) [Example 206] |
| 137 | CN(CCC(F)(F)F)C(=O)[C@@H]1NC(C23CC(N(Cc4ccc(Cl)c(Cl)c4)S(=O)(=O)CCC(F)F)(C2)C3)=NC1(C)C (mixture of isomers) [Example 207] |
| 144 | O=C(NCC1CCC1)[C@H]1CN=C(C23CC(N(Cc4ccc(C(F)(F)F)cc4)S(=O)(=O)c4ccc(F)cc4)(C2)C3)N1 (mixture of isomers) [Example 209] |
| 144 | CC1(C)N=C(C23CC(N(Cc4ccc(Cl)c(Cl)c4)S(=O)(=O)CCC(F)F)(C2)C3)N[C@H]1C(=O)NCC(F)(F)C(F)(F)F (mixture of isomers) [Example 210] |
| 148 | CC1N=C(C23CC(N(Cc4ccc(C(F)(F)F)cc4)S(=O)(=O)c4ccc(F)cc4)(C2)C3)N[C@@]1(C)C(=O)NCCC(F)(F)F (mixture of isomers) [Example 211] |
| 149 | CC1(C)N=C(C23CC(N(Cc4ccc(Cl)cc4)S(=O)(=O)N4CCC(F)(F)C4)(C2)C3)N[C@H]1C(=O)NCCC(F)(F)F (mixture of isomers) [Example 212] |
| 152 | CC(C)NC(=O)[C@@]1(C)CN=C(C23CC(N(Cc4ccc(C(F)(F)F)cc4)S(=O)(=O)c4ccc(F)cc4)(C2)C3)N1C (mixture of isomers) [Example 213] |
| 159 | C[C@]1(C(=O)NCC2CCC2)CN=C(C23CC(N(Cc4ccc(C(F)(F)F)cc4)S(=O)(=O)c4ccc(F)cc4)(C2)C3)N1 (mixture of isomers) [Example 214] |
| 159 | CN(CC(F)(F)C(F)(F)F)C(=O)[C@@H]1NC(C23CC(N(Cc4ccc(Cl)c(Cl)c4)S(=O)(=O)c4ccccc4)(C2)C3)=NC1(C)C (mixture of isomers) [Example 215] |
| 163 | CCCS(=O)(=O)N(Cc1ccc(Cl)c(Cl)c1)C12CC(C3=NC(C)(C)[C@H](C(=O)NCCCC(F)(F)F)N3)(C1)C2 (mixture of isomers) [Example 216] |
| 167 | CC1(C)N=C(C23CC(N(Cc4ccc(C(F)(F)F)cc4)S(=O)(=O)c4ccc(F)cc4)(C2)C3)N[C@H]1C(=O)NCCC(F)(F)F (mixture of isomers) [Example 217] |
| 168 | C[C@]1(C(=O)NCC2CC2)CN=C(C23CC(N(Cc4ccc(C(F)(F)F)cc4)S(=O)(=O)c4ccc(F)cc4)(C2)C3)N1 (mixture of isomers) [Example 218] |
| 168 | Cc1ccccc1S(=O)(=O)N(Cc1ccc(Cl)cc1)C12CC(C3=NC(C)(C)[C@H](C(=O)NCCC(F)(F)F)N3)(C1)C2 (mixture of isomers) [Example 219] |
| 169 | CC1(C)N=C(C23CC(N(Cc4ccc(C(F)(F)F)c(Cl)c4)S(=O)(=O)c4ccccc4)(C2)C3)N[C@H]1C(=O)NCCC(F)(F)F (mixture of isomers) [Example 221] |
| 170 | CC(F)(F)CCS(=O)(=O)N(Cc1ccc(Cl)c(F)c1)C12CC(C3=NC(C)(C)[C@H](C(=O)NCC(F)(F)C(F)(F)F)N3)(C1)C2 (mixture of isomers) [Example 222] |
| 177 | CC1(C)N=C(C23CC(N(Cc4ccc(Cl)c(C#N)c4)S(=O)(=O)c4ccccc4)(C2)C3)N[C@H]1C(=O)NCCC(F)(F)F (mixture of isomers) [Example 223] |
| 182 | CC1(C)N=C(C23CC(N(Cc4ccc(Cl)c(F)c4)S(=O)(=O)c4ccccc4O)(C2)C3)N[C@H]1C(=O)NCCC(F)(F)F (mixture of isomers) [Example 225] |
| 185 | CC1(C)N=C(C23CC(N(Cc4ccc(Cl)c(Cl)c4)S(=O)(=O)c4ccccc4O)(C2)C3)N[C@H]1C(=O)NCCC(F)(F)F (mixture of isomers) [Example 226] |
| 186 | C[C@]1(C(=O)NCC2CC(F)(F)C2)CN=C(C23CC(N(Cc4ccc(C(F)(F)F)cc4)S(=O)(=O)c4ccc(F)cc4)(C2)C3)N1 (mixture of isomers) [Example 227] |
| 190 | CC1(NC(=O)[C@@]2(C)CN=C(C34CC(N(Cc5ccc(C(F)(F)F)cc5)S(=O)(=O)c5ccc(F)cc5)(C3)C4)N2)CCC1 (mixture of isomers) [Example 228] |
| 201 | CN(C)C(=O)[C@]1(C)CN=C(C23CC(N(Cc4ccc(C(F)(F)F)cc4)S(=O)(=O)c4ccc(F)cc4)(C2)C3)N1 (mixture of isomers) [Example 230] |
| 205 | CC1(C)N=C(C23CC(N(Cc4ccc(Cl)cc4)S(=O)(=O)CC4CC(F)(F)C4)(C2)C3)N[C@H]1C(=O)NCCC(F)(F)F (mixture of isomers) [Example 231] |
| 209 | CC1(C)N=C(C23CC(N(Cc4ccc(Cl)c(F)c4)S(=O)(=O)c4ccccc4)(C2)C3)N[C@H]1C(=O)NCC(O)C(F)(F)F (mixture of isomers) [Example 233] |

| IC50 [nM] | Compound |
| --- | --- |
| 211 | C[C@]1(C(=O)N2CC3CC3C2)CN=C(C23CC(N(Cc4ccc(C(F)(F)F)cc4)S(=O)(=O)c4ccc(F)cc4)(C2)C3)N1 (mixture of isomers) [Example 234] |
| 221 | CC(NC(=O)[C@@]1(C)CN=C(C23CC(N(Cc4ccc(C(F)(F)F)cc4)S(=O)(=O)c4ccc(F)cc4)(C2)C3)N1)C1CCC1 (mixture of isomers) [Example 238] |
| 235 | CC(C)NC(=O)[C@H]1NC(C23CC(N(Cc4ccc(Cl)c(F)c4)S(=O)(=O)c4ccccc4)(C2)C3)=NC1(C)C (mixture of isomers) [Example 240] |
| 243 | Cn1ccc(S(=O)(=O)N(Cc2ccc(Cl)cc2)C23CC(C4=NC(C)(C)[C@H](C(=O)NCCC(F)(F)F)N4)(C2)C3)n1 (mixture of isomers) [Example 241] |
| 248 | CC1(C)N=C(C23CC(N(Cc4ccc(Cl)c(F)c4)S(=O)(=O)c4ccccc4)(C2)C3)N[C@H]1C(=O)NC12CC(C(F)(F)F)(C1)C2 (mixture of isomers) [Example 242] |
| 251 | CC(C)NC(=O)[C@@]1(C)CN=C(C23CC(N(Cc4ccccc4)S(=O)(=O)c4ccc(F)cc4)(C2)C3)N1 (mixture of isomers) [Example 243] |
| 252 | C[C@]1(C(=O)N2CCCCC2)CN=C(C23CC(N(Cc4ccc(C(F)(F)F)cc4)S(=O)(=O)c4ccc(F)cc4)(C2)C3)N1 (mixture of isomers) [Example 244] |
| 253 | CC1N=C(C23CC(N(Cc4ccc(C(F)(F)F)cc4)S(=O)(=O)c4ccc(F)cc4)(C2)C3)N[C@@]1(C)C(=O)NCC1CCC1 (mixture of isomers) [Example 245] |
| 258 | CC1(C)N=C(C23CC(N(Cc4ccc(C#N)cc4)S(=O)(=O)c4ccccc4)(C2)C3)N[C@H]1C(=O)NCCC(F)(F)F (mixture of isomers) [Example 246] |
| 262 | C[C@@]1(C(=O)NCC2CCC2)CN=C(C23CC(N(Cc4ccc(C(F)(F)F)cc4)S(=O)(=O)c4ccc(F)cc4)(C2)C3)N1 (mixture of isomers) [Example 247] |
| 275 | CC1(C)N=C(C23CC(N(Cc4ccc(Cl)c(F)c4)S(=O)(=O)c4ccccc4)(C2)C3)N[C@@H]1C(=O)N1CCC(F)(F)CC1 (mixture of isomers) [Example 248] |
| 280 | CC1(C)N=C(C23CC(N(Cc4ccc(Cl)c(F)c4)S(=O)(=O)c4ccccc4)(C2)C3)N[C@H]1C(=O)N1CC2(CCC2(F)F)C1 (mixture of isomers) [Example 249] |
| 286 | CC(C)NC(=O)[C@@]1(C)CN=C(C23CC(N(Cc4ccc(C(F)(F)F)cc4)S(=O)(=O)c4ccc(F)cc4)(C2)C3)N1 (mixture of isomers) [Example 250] |
| 307 | CC1(C)N=C(C23CC(N(Cc4ccc(C(F)(F)F)cc4)S(=O)(=O)c4ccc(F)cc4)(C2)C3)N[C@@H]1C(=O)NCCC(F)(F)F (mixture of isomers) [Example 251] |
| 317 | CC(C)S(=O)(=O)N(Cc1ccc(Cl)cc1)C12CC(C3=NC(C)(C)[C@H](C(=O)NCCC(F)(F)F)N3)(C1)C2 (mixture of isomers) [Example 252] |
| 323 | C[C@]1(C(=O)N2CC3(CCC3)C2)CN=C(C23CC(N(Cc4ccc(C(F)(F)F)cc4)S(=O)(=O)c4ccc(F)cc4)(C2)C3)N1 (mixture of isomers) [Example 253] |
| 333 | CC(C)NC(=O)[C@@]1(C)CN=C(C23CC(N(Cc4ccc(C(F)(F)F)cc4)S(=O)(=O)c4ccccc4)(C2)C3)N1 (mixture of isomers) [Example 254] |
| 341 | CC1(C)N=C(C23CC(N(Cc4ccc(C(F)(F)F)cc4)S(=O)(=O)c4ccc(F)cc4)(C2)C3)N[C@@]1(C)C(=O)NCCC(F)(F)F (mixture of isomers) [Example 255] |
| 342 | CN(CC1CCC1)C(=O)[C@@]1(C)CN=C(C23CC(N(Cc4ccc(C(F)(F)F)cc4)S(=O)(=O)c4ccc(F)cc4)(C2)C3)N1 (mixture of isomers) [Example 256] |
| 348 | CC1(C)N=C(C23CC(N(Cc4ccc(Cl)c(F)c4)S(=O)(=O)c4ccccc4)(C2)C3)N[C@H]1C(=O)N1CCOCC1 (mixture of isomers) [Example 257] |
| 362 | CC(C)NC(=O)[C@@]1(C)CN=C(C23CC(N(Cc4ccccc4)S(=O)(=O)c4ccccc4)(C2)C3)N1 (mixture of isomers) [Example 258] |
| 370 | C[C@]1(C(=O)NCC(F)(F)F)CN=C(C23CC(N(Cc4ccc(C(F)(F)F)cc4)S(=O)(=O)c4ccc(F)cc4)(C2)C3)N1 (mixture of isomers) [Example 260] |
| 386 | COCCS(=O)(=O)N(Cc1ccc(Cl)cc1)C12CC(C3=NC(C)(C)[C@H](C(=O)NCCC(F)(F)F)N3)(C1)C2 (mixture of isomers) [Example 261] |
| 395 | C[C@]1(C(=O)N2CCCC2)CN=C(C23CC(N(Cc4ccc(C(F)(F)F)cc4)S(=O)(=O)c4ccc(F)cc4)(C2)C3)N1 (mixture of isomers) [Example 262] |

Reference: patent US12128028B2, “Heterocyclic sulfonamide derivatives and pharmaceutical uses thereof” (METRION BIOSCIENCES LIMITED, priority 2018, dated 2024)
